# From paper PMC11992225, “Antibacterial compounds against non-growing and intracellular bacteria” (npj Antimicrobials and Resistance, 2025)
# pEC50: −log10 of the molar value. Several values for one entry are separate records, joined by “and”; a condition that tells them apart may be missing. Identical values can stand only once. Like-named read-outs stand apart in the source and are kept apart here.
# Legend:
# non-growing UPEC CFT073 [1] = experiment: Dose-dependent killing analysis (CFU spot-plating) of stationary-phase UPEC; format: cell-based, Escherichia coli; conditions: for log10(CFU/ml) after treatment: individual replicates; for log10(CFU/ml) of treated nongrowing bacteria (single replicates): before treatment 8.977
# Protocol: To differentiate between these scenarios, we used CFU counting by agar plating to assess the bactericidal effect on non-growing bacteria. […] Conversely, if no significant reduction in CFU is observed, the regrowth delay is due to PAE without killing. […] Fluoroquinolones are known to cause PAE after treatment of growing bacterial cultures.
# (§1) For survival analysis, bacteria were cultivated as described for the dose–response dilution-regrowth assay. Assays with UPEC were conducted at the CBCS screening facility using 96-well plates with a 200 μl sample volume, and compounds were dispensed using the Echo® (Labcyte) system. P. aeruginosa and S. aureus samples were treated according to the protocol used for the dilution-regrowth experiments. Treated samples were serially diluted 10-fold in PBS, and 10 μl drops were spot-plated onto rectangular LB agar plates using either a Beckman NXP robot (for UPEC) or an Integra VIAFLO96 electronic pipette (for P. aeruginosa and S. aureus). The LB agar plates were incubated overnight at 37 °C and scanned. Colonies were counted at the spots of the lowest dilution where individual colonies could be accurately distinguished. Each colony was manually marked on a separate image layer using the GNU Image Manipulation Program, and counted using NIST’s Integrated Colony Enumerator (NICE 1.4) software. The experiments were performed in three biological replicates.
# non-growing UPEC CFT073 [2] = experiment: Dilution-regrowth assay (screen, hit validation, dose-response) on stationary-phase UPEC; format: cell-based, Escherichia coli; conditions: for Regrowth, OD600 at 6h or 8h after dilution into drug-free medium: average; for pEC50: Escherichia coli, E. coli, pH 7.4, regrowth delay of non-growing bacteria, 1:4 CA-MHB, 24 h treatment, OD600 6 h after 2500-fold dilution, read-out: EC50
# How it was run: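 Regrowth (OD600 after 6 h, 37 °C) of diluted non-growing CFT073, following 24 h compound treatment of 24 h stationary cultures, defines activity relative to untreated control. Screen at 20 µM, validation at 20, 10, 5 µM (duplicates), dose–response in three biological replicates fitted by five-parameter logistic.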
# [3] = system: non-growing P. aeruginosa DSM1117; experiment: Dose-dependent killing analysis (CFU spot-plating) of stationary-phase P. aeruginosa; format: cell-based, Pseudomonas aeruginosa; conditions: for log10(CFU/ml) after treatment / killing, average Δlog10(CFU/ml) / log10(CFU/ml) of treated nongrowing bacteria (single replicates): P. aeruginosa; for log10(CFU/ml) after treatment: individual replicates; for reduction of bacterial counts, non-growing P. aeruginosa: at 2.5 µM, 1:4 CA-MHB pH 7.4, 24 h treatment; for log10(CFU/ml) of treated nongrowing bacteria (single replicates): before treatment 8.887
# Protocol: The cultures were grown and treated for 24 h in 1:4 CA-MHB (pH 7.4).
# as §1
# P. aeruginosa DSM1117 = experiment: MIC, standard microdilution assay, growing P. aeruginosa; format: cell-based, Pseudomonas aeruginosa; conditions: Pseudomonas aeruginosa, DSM1117, P. aeruginosa
# How it was run: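 Standard microdilution protocol, triplicate wells. For S. flexneri the growth medium is TSB. The other three strains are grown in HEPES-buffered (40 mM, pH 7.4) CA-MHB, and UPEC is also run at pH 5.5 in LPM containing 30 mM MES.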
# [4] = E. coli in 1:4 CA-MHB (pH 7.4), concentration 0.25
# [5] = E. coli in 1:4 CA-MHB (pH 7.4), concentration 0.5
# [6] = E. coli in 1:4 CA-MHB (pH 7.4), concentration 1
# [7] = E. coli in 1:4 CA-MHB (pH 7.4), concentration 2.5
# [8] = E. coli in 1:4 CA-MHB (pH 7.4), concentration 5
# [9] = E. coli in 1:4 CA-MHB (pH 7.4), concentration 10
# [10] = E. coli in LPM (pH 5.5), concentration 0.25
# [11] = E. coli in LPM (pH 5.5), concentration 0.5
# [12] = E. coli in LPM (pH 5.5), concentration 1
# [13] = E. coli in LPM (pH 5.5), concentration 2.5
# [14] = E. coli in LPM (pH 5.5), concentration 5
# [15] = E. coli in LPM (pH 5.5), concentration 10
# [16] = E. coli in 1:4 CA-MHB (pH 7.4), concentration 30
# [17] = E. coli in LPM (pH 5.5), concentration 30
# [18] = concentration 2.5, vs CFU before treatment
# [19] = concentration 10, vs CFU before treatment
# [20] = 1:4 diluted CA-MHB pH 7.4, read-out: MIC (μM) 1:4 CA-MHB
# [21] = CA-MHB pH 7.4, read-out: MIC (μM) CA-MHB
# [22] = E. coli in 1:4 CA-MHB (pH 7.4), drug concentration 0.25
# [23] = E. coli in 1:4 CA-MHB (pH 7.4), drug concentration 0.5
Structure (SMILES),log10(CFU/ml) after treatment (non-growing UPEC CFT073 [1]; [6]),log10(CFU/ml) after treatment (non-growing UPEC CFT073 [1]; [7]),log10(CFU/ml) after treatment (non-growing UPEC CFT073 [1]; [8]),log10(CFU/ml) after treatment (non-growing UPEC CFT073 [1]; [9]),"Regrowth, OD600 at 6h or 8h after dilution into drug-free medium (non-growing UPEC CFT073 [2]; [6])","Regrowth, OD600 at 6h or 8h after dilution into drug-free medium (non-growing UPEC CFT073 [2]; [7])","Regrowth, OD600 at 6h or 8h after dilution into drug-free medium (non-growing UPEC CFT073 [2]; [8])","Regrowth, OD600 at 6h or 8h after dilution into drug-free medium (non-growing UPEC CFT073 [2]; [9])","Regrowth, OD600 at 6h or 8h after dilution into drug-free medium (non-growing UPEC CFT073 [2]; [16])","Regrowth, OD600 at 6h or 8h after dilution into drug-free medium (non-growing UPEC CFT073 [2]; [12])","Regrowth, OD600 at 6h or 8h after dilution into drug-free medium (non-growing UPEC CFT073 [2]; [13])","Regrowth, OD600 at 6h or 8h after dilution into drug-free medium (non-growing UPEC CFT073 [2]; [14])","Regrowth, OD600 at 6h or 8h after dilution into drug-free medium (non-growing UPEC CFT073 [2]; [15])","Regrowth, OD600 at 6h or 8h after dilution into drug-free medium (non-growing UPEC CFT073 [2]; [17])",pEC50 (non-growing UPEC CFT073 [2]),log10(CFU/ml) after treatment ([3]; concentration 2.5),"killing, average Δlog10(CFU/ml) [3, 18]",log10(CFU/ml) after treatment ([3]; concentration 10),"killing, average Δlog10(CFU/ml) [3, 19]","reduction of bacterial counts, non-growing P. aeruginosa [3]",also measured
CO/N=C1\CN(c2nc3c(cc2F)c(=O)c(C(=O)O)cn3C2CC2)CC1CN (stereo not drawn) [Gemifloxacin],8.699 log10(CFU/ml) and 8.079 log10(CFU/ml) and 7.301 log10(CFU/ml),8.230 log10(CFU/ml) and 7.602 log10(CFU/ml) and 7.301 log10(CFU/ml),7.903 log10(CFU/ml) and 7.415 log10(CFU/ml) and 7.322 log10(CFU/ml),8.146 log10(CFU/ml) and 7.041 log10(CFU/ml) and 6.602 log10(CFU/ml),0.206,0.090,0.086,0.083,0.082,0.562,0.529,0.513,0.417,0.143,6.12,=<4 log10(CFU/ml) (2×) and 4.954 log10(CFU/ml),4.569 log10(CFU/ml),=<4 log10(CFU/ml) (2×) and 4.477 log10(CFU/ml),4.728 log10(CFU/ml),more than four,"log10(CFU/ml) after treatment (non-growing UPEC CFT073 [1]; [4]): 9.342 log10(CFU/ml) and 9.204 log10(CFU/ml) and 8.505 log10(CFU/ml); log10(CFU/ml) after treatment (non-growing UPEC CFT073 [1]; [5]): 8.845 log10(CFU/ml) and 8.778 log10(CFU/ml) and 8.000 log10(CFU/ml); log10(CFU/ml) after treatment (non-growing UPEC CFT073 [1]; [10]): 6.778 log10(CFU/ml) and 7.146 log10(CFU/ml) and 8.322 log10(CFU/ml); log10(CFU/ml) after treatment (non-growing UPEC CFT073 [1]; [11]): 7.000 log10(CFU/ml) and 7.255 log10(CFU/ml) and 8.301 log10(CFU/ml); log10(CFU/ml) after treatment (non-growing UPEC CFT073 [1]; [12]): 7.041 log10(CFU/ml) and 7.362 log10(CFU/ml) and 8.079 log10(CFU/ml); log10(CFU/ml) after treatment (non-growing UPEC CFT073 [1]; [13]): 6.778 log10(CFU/ml) and 7.255 log10(CFU/ml) and 8.230 log10(CFU/ml); log10(CFU/ml) after treatment (non-growing UPEC CFT073 [1]; [14]): 7.230 log10(CFU/ml) and 7.380 log10(CFU/ml) and 8.146 log10(CFU/ml); log10(CFU/ml) after treatment (non-growing UPEC CFT073 [1]; [15]): 7.176 log10(CFU/ml) (2×) and 8.230 log10(CFU/ml); Regrowth, OD600 at 6h or 8h after dilution into drug-free medium (non-growing UPEC CFT073 [2]; [4]): 0.556; Regrowth, OD600 at 6h or 8h after dilution into drug-free medium (non-growing UPEC CFT073 [2]; [5]): 0.511; Regrowth, OD600 at 6h or 8h after dilution into drug-free medium (non-growing UPEC CFT073 [2]; [10]): 0.559; Regrowth, OD600 at 6h or 8h after dilution into drug-free medium (non-growing UPEC CFT073 [2]; [11]): 0.564; log10(CFU/ml) after treatment ([3]; concentration 0.1): 8.477 log10(CFU/ml) and 8.778 log10(CFU/ml) and 8.114 log10(CFU/ml); killing, average Δlog10(CFU/ml) ([3]; concentration 0.1, vs CFU before treatment): 0.431 log10(CFU/ml); log10(CFU/ml) after treatment ([3]; concentration 0.5): 7.699 log10(CFU/ml) (2×) and 7.477 log10(CFU/ml); killing, average Δlog10(CFU/ml) ([3]; concentration 0.5, vs CFU before treatment): 1.262 log10(CFU/ml); MIC (P. aeruginosa DSM1117; [20]): 2 µM; MIC (P. aeruginosa DSM1117; [21]): 1 µM"
Cc1oc(=O)oc1CN1CCN(c2cc3c(cc2F)c(=O)c(C(=O)O)c2n3C(C)S2)CC1 (stereo not drawn) [Prulifloxacin],9.041 log10(CFU/ml) (2×) and 8.398 log10(CFU/ml),8.845 log10(CFU/ml) and 8.230 log10(CFU/ml) and 7.903 log10(CFU/ml),8.477 log10(CFU/ml) and 7.699 log10(CFU/ml) and 7.176 log10(CFU/ml),7.903 log10(CFU/ml) and 7.176 log10(CFU/ml) (2×),0.198,0.109,0.093,0.094,0.092,0.586,0.570,0.549,0.564,0.416,6.24,=<4 log10(CFU/ml) (2×) and 4.602 log10(CFU/ml),4.687 log10(CFU/ml),=<4 log10(CFU/ml),4.887 log10(CFU/ml),more than four,"killing, average Δlog10(CFU/ml) (non-growing UPEC CFT073 [1]; [22]): 0.155 log10(CFU/ml); log10(CFU/ml) of treated nongrowing bacteria (single replicates) (non-growing UPEC CFT073 [1]; [22]): 9.322 log10(CFU/ml) and 8.845 log10(CFU/ml) and 8.301 log10(CFU/ml); killing, average Δlog10(CFU/ml) (non-growing UPEC CFT073 [1]; [23]): 0.462 log10(CFU/ml); log10(CFU/ml) of treated nongrowing bacteria (single replicates) (non-growing UPEC CFT073 [1]; [23]): 8.903 log10(CFU/ml) and 8.301 log10(CFU/ml) and 8.342 log10(CFU/ml); killing, average Δlog10(CFU/ml) ([3]; drug concentration 0.1): 0.555 log10(CFU/ml); log10(CFU/ml) of treated nongrowing bacteria (single replicates) ([3]; drug concentration 0.1): 8.477 log10(CFU/ml) (2×) and 8.041 log10(CFU/ml); killing, average Δlog10(CFU/ml) ([3]; drug concentration 0.5): 3.168 log10(CFU/ml); log10(CFU/ml) of treated nongrowing bacteria (single replicates) ([3]; drug concentration 0.5): 5.778 log10(CFU/ml) and 6.602 log10(CFU/ml) and 4.778 log10(CFU/ml); reduction of bacterial counts, stationary phase P. aeruginosa ([3]; at 0.5 µM, 24 h treatment): more than four; MIC (P. aeruginosa DSM1117; [20]): 1 µM; MIC (P. aeruginosa DSM1117; [21]): 1 µM"
